The target in this test is T1, SIRT1 (Homo sapiens, UniProt Q96EB6).
T1 sequence (Q96EB6 1-747): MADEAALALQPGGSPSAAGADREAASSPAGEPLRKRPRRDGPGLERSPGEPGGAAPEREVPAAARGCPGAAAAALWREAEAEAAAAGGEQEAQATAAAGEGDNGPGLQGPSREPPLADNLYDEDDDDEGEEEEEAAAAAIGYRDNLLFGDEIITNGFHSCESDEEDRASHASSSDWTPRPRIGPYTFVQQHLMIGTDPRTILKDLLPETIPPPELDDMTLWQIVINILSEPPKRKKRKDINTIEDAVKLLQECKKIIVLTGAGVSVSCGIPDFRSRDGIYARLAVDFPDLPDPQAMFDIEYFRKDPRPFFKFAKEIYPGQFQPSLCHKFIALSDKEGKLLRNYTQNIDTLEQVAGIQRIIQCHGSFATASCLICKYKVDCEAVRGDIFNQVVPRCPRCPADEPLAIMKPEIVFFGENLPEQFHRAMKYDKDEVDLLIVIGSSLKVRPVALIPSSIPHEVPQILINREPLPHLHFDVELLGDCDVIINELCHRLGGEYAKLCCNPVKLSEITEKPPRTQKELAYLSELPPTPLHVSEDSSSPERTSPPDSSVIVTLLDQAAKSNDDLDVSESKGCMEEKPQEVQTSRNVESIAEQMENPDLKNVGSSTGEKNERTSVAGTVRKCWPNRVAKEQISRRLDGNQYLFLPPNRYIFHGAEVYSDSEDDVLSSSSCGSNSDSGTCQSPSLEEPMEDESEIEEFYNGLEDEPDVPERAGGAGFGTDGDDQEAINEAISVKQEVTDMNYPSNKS
Put plainly: Trp mass spectrometry assay of SIRT1 activation. Type of test: biochemical. Conditions: Trp peptide Ac-R-H-K-K(Ac)-W-NH2 0.5 μM, 120 μM βNAD+, 10 nM SIRT1, 25 min, 25° C.

With `O=C(Nc1cc(OC[C@H](O)CO)ncn1)N1c2nc(-c3cccc(C(F)(F)F)c3)ncc2N2CCC[C@H]1C2` [Example 92, (9S)—N-(6-((R)-2,3-dihydroxypropoxy)pyrimidin-4-yl)-2-(3-(trifluoromethyl)phenyl)-8,9-dihydro-6H-5,9-methanopyrimido[4,5-b][1,4]diazocine-10(7H)-carboxamide], the “TRP Activity (EC1.5, concentration of compound required to increase SIRT1 activity by 50% over control)” value is listed as “A (EC1.5<1 μM)” and the “TRP MAX RESP (percent maximum fold activation relative to control)” value is “A (Fold activation ≥150%)”.

Consider `O=C(Nc1ncc(OC[C@H](O)CO)cn1)N1c2nc(-c3cccc(C(F)(F)F)c3)ncc2N2CC[C@H]1C2` [Example 41, (8S)—N-(5-((R)-2,3-dihydroxypropoxy)pyrimidin-2-yl)-2-(3-(trifluoromethyl)phenyl)-7,8-dihydro-5,8-methanopyrimido[4,5-b][1,4]diazepine-9(6H)-carboxamide], for which the “TRP Activity (EC1.5, concentration of compound required to increase SIRT1 activity by 50% over control)” value was “B (EC1.5 1-25 μM)” and the “TRP MAX RESP (percent maximum fold activation relative to control)” value was “A (Fold activation ≥150%)”.

Turning to `Cc1ccc2c(NC(=O)N3c4nc(C(=O)N[C@H](C)C(F)(F)F)nc(C)c4N4CCC[C@H]3C4)n[nH]c2n1` [Example 73, (9S)-4-methyl-N10-(6-methyl-1H-pyrazolo[3,4-b]pyridin-3-yl)-N2-((R)-1,1,1-trifluoropropan-2-yl)-8,9-dihydro-6H-5,9-methanopyrimido[4,5-b][1,4]diazocine-2,10(7H)-dicarboxamide], the “TRP Activity (EC1.5, concentration of compound required to increase SIRT1 activity by 50% over control)” value is reported as “A (EC1.5<1 μM)” and the “TRP MAX RESP (percent maximum fold activation relative to control)” value is recorded as “A (Fold activation ≥150%)”.

Regarding `O=C(Nc1cnc(OC[C@@H](O)CO)nc1)N1c2nc(-c3cccc(C(F)(F)F)c3)ncc2N2CCC[C@H]1C2` [Example 102, (9S)—N-(2-((S)-2,3-dihydroxypropoxy)pyrimidin-5-yl)-2-(3-(trifluoromethyl)phenyl)-8,9-dihydro-6H-5,9-methanopyrimido[4,5-b][1,4]diazocine-10(7H)-carboxamide], the “TRP Activity (EC1.5, concentration of compound required to increase SIRT1 activity by 50% over control)” value is recorded as “A (EC1.5<1 μM)” and the “TRP MAX RESP (percent maximum fold activation relative to control)” value is on record as “A (Fold activation ≥150%)”.

Turning to `Cc1ccc(-c2nc(C)c3c(n2)N(C(=O)Nc2cccnc2)[C@H]2CCN3C2)cn1` [Example 7, (8S)-4-methyl-2-(6-methylpyridin-3-yl)-N-(pyridin-3-yl)-7,8-dihydro-5,8-methanopyrimido[4,5-b][1,4]diazepine-9(6H)-carboxamide], the “TRP Activity (EC1.5, concentration of compound required to increase SIRT1 activity by 50% over control)” value is “B (EC1.5 1-25 μM)” and the “TRP MAX RESP (percent maximum fold activation relative to control)” value is “A (Fold activation ≥150%)”.

In the case of `O=C(NC1CCC1)N1c2nc(-c3cccc(C(F)(F)F)c3)ncc2N2CC[C@H]1C2` [Example 20, (8S)—N-cyclobutyl-2-(3-(trifluoromethyl)phenyl)-7,8-dihydro-5,8-methanopyrimido[4,5-b][1,4]diazepine-9(6H)-carboxamide], the “TRP Activity (EC1.5, concentration of compound required to increase SIRT1 activity by 50% over control)” value is “A (EC1.5<1 μM)” and the “TRP MAX RESP (percent maximum fold activation relative to control)” value is “A (Fold activation ≥150%)”.

Regarding `Cc1nc(-c2cccc(C(F)(F)F)c2)nc2c1N1CCC[C@@H](C1)N2C(=O)Nc1ccc(OC[C@H](O)CO)cn1` [Example 113, (9S)—N-(5-((R)-2,3-dihydroxypropoxy)pyridin-2-yl)-4-methyl-2-(3-(trifluoromethyl)phenyl)-8,9-dihydro-6H-5,9-methanopyrimido[4,5-b][1,4]diazocine-10(7H)-carboxamide], the “TRP Activity (EC1.5, concentration of compound required to increase SIRT1 activity by 50% over control)” value was “A (EC1.5<1 μM)” and the “TRP MAX RESP (percent maximum fold activation relative to control)” value is given as “A (Fold activation ≥150%)”.

As for `O=C(Nc1ccc(OC[C@H](O)CO)nc1)N1c2nc(-c3cccc(C(F)(F)F)c3)ncc2N2CCC[C@H]1C2` [Example 82, (9S)—N-(6-((R)-2,3-dihydroxypropoxy)pyridin-3-yl)-2-(3-(trifluoromethyl)phenyl)-8,9-dihydro-6H-5,9-methanopyrimido[4,5-b][1,4]diazocine-10(7H)-carboxamide], the “TRP Activity (EC1.5, concentration of compound required to increase SIRT1 activity by 50% over control)” value is reported as “A (EC1.5<1 μM)” and the “TRP MAX RESP (percent maximum fold activation relative to control)” value is on record as “A (Fold activation ≥150%)”.

Consider `O=C(Nc1ccnc(OC[C@@H](O)CO)c1)N1c2nc(-c3cccc(C(F)(F)F)c3)ncc2N2CCC[C@H]1C2` [Example 85, (9S)—N-(2-((S)-2,3-dihydroxypropoxy)pyridin-4-yl)-2-(3-(trifluoromethyl)phenyl)-8,9-dihydro-6H-5,9-methanopyrimido[4,5-b][1,4]diazocine-10(7H)-carboxamide], for which the “TRP Activity (EC1.5, concentration of compound required to increase SIRT1 activity by 50% over control)” value was “A (EC1.5<1 μM)” and the “TRP MAX RESP (percent maximum fold activation relative to control)” value is “A (Fold activation ≥150%)”.

For the molecule `O=C(Nc1cnc(OC[C@H](O)CO)cn1)N1c2nc(-c3cccc(C(F)(F)F)c3)ncc2N2CCC[C@H]1C2` [Example 97, (9S)—N-(5-((R)-2,3-dihydroxypropoxy)pyrazin-2-yl)-2-(3-(trifluoromethyl)phenyl)-8,9-dihydro-6H-5,9-methanopyrimido[4,5-b][1,4]diazocine-10(7H)-carboxamide], the “TRP Activity (EC1.5, concentration of compound required to increase SIRT1 activity by 50% over control)” value is listed as “A (EC1.5<1 μM)” and the “TRP MAX RESP (percent maximum fold activation relative to control)” value was “A (Fold activation ≥150%)”.

Turning to `O=C(Nc1cncc(OC[C@H](O)CO)n1)N1c2nc(-c3cccc(C(F)(F)F)c3)ncc2N2CC[C@H]1C2` [Example 37, (8S)—N-(6-((R)-2,3-dihydroxypropoxy)pyrazin-2-yl)-2-(3-(trifluoromethyl)phenyl)-7,8-dihydro-5,8-methanopyrimido[4,5-b][1,4]diazepine-9(6H)-carboxamide], the “TRP Activity (EC1.5, concentration of compound required to increase SIRT1 activity by 50% over control)” value is on record as “B (EC1.5 1-25 μM)” and the “TRP MAX RESP (percent maximum fold activation relative to control)” value is reported as “A (Fold activation ≥150%)”.

Take `O=C(Nc1cc(OC[C@H](O)CO)ncn1)N1c2nc(-c3cccc(C(F)(F)F)c3)ncc2N2CC[C@H]1C2` [Example 16, (8S)—N-(6-((R)-2,3-dihydroxypropoxy)pyrimidin-4-yl)-2-(3-(trifluoromethyl)phenyl)-7,8-dihydro-5,8-methanopyrimido[4,5-b][1,4]diazepine-9(6H)-carboxamide]: the “TRP Activity (EC1.5, concentration of compound required to increase SIRT1 activity by 50% over control)” value is recorded as “B (EC1.5 1-25 μM)” and the “TRP MAX RESP (percent maximum fold activation relative to control)” value is listed as “A (Fold activation ≥150%)”.

In the case of `O=C(Nc1ccnc(OC[C@@H](O)CO)n1)N1c2nc(-c3cccc(C(F)(F)F)c3)ncc2N2CCC[C@H]1C2` [Example 79, (9S)—N-(2-((S)-2,3-dihydroxypropoxy)pyrimidin-4-yl)-2-(3-(trifluoromethyl)phenyl)-8,9-dihydro-6H-5,9-methanopyrimido[4,5-b][1,4]diazocine-10(7H)-carboxamide], the “TRP Activity (EC1.5, concentration of compound required to increase SIRT1 activity by 50% over control)” value is “A (EC1.5<1 μM)” and the “TRP MAX RESP (percent maximum fold activation relative to control)” value is “A (Fold activation ≥150%)”.

As to `O=C(Nc1ccnc(OC[C@H](O)CO)c1)N1c2nc(-c3cccc(C(F)(F)F)c3)ncc2N2CCC[C@H]1C2` [Example 90, (9S)—N-(2-((R)-2,3-dihydroxypropoxy)pyridin-4-yl)-2-(3-(trifluoromethyl)phenyl)-8,9-dihydro-6H-5,9-methanopyrimido[4,5-b][1,4]diazocine-10(7H)-carboxamide], the “TRP Activity (EC1.5, concentration of compound required to increase SIRT1 activity by 50% over control)” value is recorded as “A (EC1.5<1 μM)” and the “TRP MAX RESP (percent maximum fold activation relative to control)” value is listed as “A (Fold activation ≥150%)”.

In the case of `O=C(Nc1cc(OC[C@@H](O)CO)ncn1)N1c2nc(-c3cccc(C(F)(F)F)c3)ncc2N2CC[C@H]1C2` [Example 29, (8S)—N-(6-((S)-2,3-dihydroxypropoxy)pyrimidin-4-yl)-2-(3-(trifluoromethyl)phenyl)-7,8-dihydro-5,8-methanopyrimido[4,5-b][1,4]diazepine-9(6H)-carboxamide], the “TRP Activity (EC1.5, concentration of compound required to increase SIRT1 activity by 50% over control)” value was “B (EC1.5 1-25 μM)” and the “TRP MAX RESP (percent maximum fold activation relative to control)” value is reported as “A (Fold activation ≥150%)”.

Regarding `O=C(Nc1ccnc(O[C@@H]2CCOC2)n1)N1c2nc(-c3cccc(C(F)(F)F)c3)ncc2N2CC[C@H]1C2` [Example 14, (8S)—N-(2-(((R)-tetrahydrofuran-3-yl)oxy)pyrimidin-4-yl)-2-(3-(trifluoromethyl)phenyl)-7,8-dihydro-5,8-methanopyrimido[4,5-b][1,4]diazepine-9(6H)-carboxamide], the “TRP Activity (EC1.5, concentration of compound required to increase SIRT1 activity by 50% over control)” value is reported as “B (EC1.5 1-25 μM)” and the “TRP MAX RESP (percent maximum fold activation relative to control)” value is “A (Fold activation ≥150%)”.
